This passage reports EC50 results from patent US12077537B2 (Gilead Sciences, Inc., priority 2020, dated 2024).

The structures appear in SMILES notation.

For this test, the system named is HIV-IIIb. As to the kind of experiment: Antiviral assay in MT4 cells. It is filed as cell-based. As to conditions: Human immunodeficiency virus 1, MT4, 120 h; MT-4 cells mixed with HIV-IIIb at m.o.i. 0.003; 5 days at 37° C.; CellTiter-Glo luminescence; 50% decrease in signal, a measure of HIV-1 replication. A digest of the protocol:
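MT-4 cells were infected with HIV-IIIb at m.o.i. 0.003 for 1 hour, then added to 3-fold serially diluted compound (10 concentrations, quadruplicate) in medium with 10% FBS. After 5 days at 37° C, cell viability was read by CellTiter-Glo chemiluminescence.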

In turn, `NC(=O)c1cc(-c2cc3sc(-c4cn[nH]c4)nc3nc2[C@H](Cc2cc(F)cc(F)c2)NC(=O)Cn2nc(C(F)(F)F)c3c2C(F)(F)[C@@H]2C[C@H]32)ccc1F` [Compound 149, 5-(5-((S)-1-(2-((3bS,4aR)-5,5-difluoro-3-(trifluoromethyl)-3b,4,4a,5-tetrahydro-1H-cyclopropa[3,4]cyclopenta[1,2-c]pyrazol-1-yl)acetamido)-2-(3,5-difluorophenyl)ethyl)-2-(1H-pyrazol-4-yl)thiazolo[4,5-b]pyridin-6-yl)-2-fluorobenzamide] displayed an EC50 of 106 nM.

`Cc1nc2nc([C@H](Cc3cc(F)cc(F)c3)NC(=O)Cn3nc(C(F)(F)F)c4c3C(F)(F)[C@@H]3C[C@H]43)c(-c3ccc(Cl)c4c(NS(C)(=O)=O)nn(C)c34)cc2[nH]1` [Example 100, N—((S)-1-(6-(4-chloro-1-methyl-3-(methylsulfonamido)-1H-indazol-7-yl)-2-methyl-1H-imidazo[4,5-b]pyridin-5-yl)-2-(3,5-difluorophenyl)ethyl)-2-((3bS,4aR)-5,5-difluoro-3-(trifluoromethyl)-3b,4,4a,5-tetrahydro-1H-cyclopropa[3,4]cyclopenta[1,2-c]pyrazol-1-yl)acetamide] gave an EC50 of 2.4 nM.

In turn, `Cn1nc(N)c2c(Cl)ccc(-c3cc4sc(NCC(C)(C)O)nc4nc3[C@H](Cc3cc(F)cc(F)c3)NC(=O)Cn3nc(C(F)F)c4c3C(F)(F)[C@@H]3C[C@H]43)c21` [Example 116, N—((S)-1-(6-(3-amino-4-chloro-1-methyl-1H-indazol-7-yl)-2-((2-hydroxy-2-methylpropyl)amino)thiazolo[4,5-b]pyridin-5-yl)-2-(3,5-difluorophenyl)ethyl)-2-((3bS,4aR)-3-(difluoromethyl)-5,5-difluoro-3b,4,4a,5-tetrahydro-1H-cyclopropa[3,4]cyclopenta[1,2-c]pyrazol-1-yl)acetamide] came in with a 50% effective concentration (EC50) of 3.5 nM.

Consider `Cn1nc(NS(C)(=O)=O)c2cccc(-c3cc4sc(N5CCNCC5)nc4nc3[C@H](Cc3cc(F)cc(F)c3)NC(=O)Cn3nc(C(F)(F)F)c4c3C(F)(F)[C@@H]3C[C@H]43)c21` [Example 86, 2-((3bS,4aR)-5,5-difluoro-3-(trifluoromethyl)-3b,4,4a,5-tetrahydro-1H-cyclopropa[3,4]cyclopenta[1,2-c]pyrazol-1-yl)-N—((S)-2-(3,5-difluorophenyl)-1-(6-(1-methyl-3-(methylsulfonamido)-1H-indazol-7-yl)-2-(piperazin-1-yl)thiazolo[4,5-b]pyridin-5-yl)ethyl)acetamide], for which the concentration giving a half-maximal response (EC50) was 15.3 nM.

Turning to `COCc1nc2nc([C@H](Cc3cc(F)cc(F)c3)NC(=O)Cn3nc(C(F)F)c4c3C(F)(F)[C@@H]3C[C@H]43)c(-c3ccc(Cl)c4c(N)nn(C)c34)cc2[nH]1` [Example 103, N—((S)-1-(6-(3-amino-4-chloro-1-methyl-1H-indazol-7-yl)-2-(methoxymethyl)-1H-imidazo[4,5-b]pyridin-5-yl)-2-(3,5-difluorophenyl)ethyl)-2-((3bS,4aR)-3-(difluoromethyl)-5,5-difluoro-3b,4,4a,5-tetrahydro-1H-cyclopropa[3,4]cyclopenta[1,2-c]pyrazol-1-yl)acetamide], the EC50 was 5.9 nM.

The compound `CN1CCN(c2nc3nc([C@H](Cc4cc(F)cc(F)c4)NC(=O)Cn4nc(C(F)F)c5c4C(F)(F)CCC5(F)F)c(-c4ccc(F)c(C(N)=O)c4)cc3s2)CC1` [Compound 7, (S)-5-(5-(1-(2-(3-(difluoromethyl)-4,4,7,7-tetrafluoro-4,5,6,7-tetrahydro-1H-indazol-1-yl)acetamido)-2-(3,5-difluorophenyl)ethyl)-2-(4-methylpiperazin-1-yl)thiazolo[4,5-b]pyridin-6-yl)-2-fluorobenzamide] yielded a half-maximal effective concentration (EC50) of 127 nM.

The compound `Cn1nc(NS(C)(=O)=O)c2cccc(-c3cc4sc(O)nc4nc3[C@H](Cc3cc(F)cc(F)c3)NC(=O)Cn3nc(C(F)(F)F)c4c3C(F)(F)[C@@H]3C[C@H]43)c21` [Example 113, 2-((3bS,4aR)-5,5-difluoro-3-(trifluoromethyl)-3b,4,4a,5-tetrahydro-1H-cyclopropa[3,4]cyclopenta[1,2-c]pyrazol-1-yl)-N—((S)-2-(3,5-difluorophenyl)-1-(2-hydroxy-6-(1-methyl-3-(methylsulfonamido)-1H-indazol-7-yl)thiazolo[4,5-b]pyridin-5-yl)ethyl)acetamide] had an EC50 of 8.1 nM.

With `Cn1nc(NS(C)(=O)=O)c2cccc(-c3cc4sc(N5CCC(C)(O)C5)nc4nc3C(Cc3cc(F)cc(F)c3)NC(=O)Cn3nc(C(F)(F)F)c4c3C(F)(F)[C@@H]3C[C@H]43)c21` (stereo partly drawn) [Example 125, 2-((3bS,4aR)-5,5-difluoro-3-(trifluoromethyl)-3b,4,4a,5-tetrahydro-1H-cyclopropa[3,4]cyclopenta[1,2-c]pyrazol-1-yl)-N-(2-(3,5-difluorophenyl)-1-(2-(3-hydroxy-3-methylpyrrolidin-1-yl)-6-(1-methyl-3-(methylsulfonamido)-1H-indazol-7-yl)thiazolo[4,5-b]pyridin-5-yl)ethyl)acetamide], the EC50 came out at 17.4 nM.

Take `CN(C)c1ncc(-c2nc3nc([C@H](Cc4cc(F)cc(F)c4)NC(=O)Cn4nc(C(F)(F)F)c5c4C(F)(F)[C@@H]4C[C@H]54)c(-c4cccc5c(NS(C)(=O)=O)nn(C)c45)cc3s2)cn1` [Compound 151, 2-((3bS,4aR)-5,5-difluoro-3-(trifluoromethyl)-3b,4,4a,5-tetrahydro-1H-cyclopropa[3,4]cyclopenta[1,2-c]pyrazol-1-yl)-N—((S)-2-(3,5-difluorophenyl)-1-(2-(2-(dimethylamino)pyrimidin-5-yl)-6-(1-methyl-3-(methylsulfonamido)-1H-indazol-7-yl)thiazolo[4,5-b]pyridin-5-yl)ethyl)acetamide]: the EC50 stood at 14.1 nM.

`Cn1nc(NS(C)(=O)=O)c2c(Cl)ccc(-c3cc4[nH]c(=O)[nH]c4nc3[C@H](Cc3cc(F)cc(F)c3)NC(=O)Cn3nc(C(F)F)c4c3C(F)(F)[C@@H]3C[C@H]43)c21` [Example 109, N—((S)-1-(6-(4-chloro-1-methyl-3-(methylsulfonamido)-1H-indazol-7-yl)-2-oxo-2,3-dihydro-1H-imidazo[4,5-b]pyridin-5-yl)-2-(3,5-difluorophenyl)ethyl)-2-((3bS,4aR)-3-(difluoromethyl)-5,5-difluoro-3b,4,4a,5-tetrahydro-1H-cyclopropa[3,4]cyclopenta[1,2-c]pyrazol-1-yl)acetamide] had an EC50 of 36.8 nM.

In turn, `CC(C)N1CCN(c2nc3nc([C@H](Cc4cc(F)cc(F)c4)NC(=O)Cn4nc(C(F)(F)F)c5c4C(F)(F)[C@@H]4C[C@H]54)c(-c4cccc5c(NS(C)(=O)=O)nn(C)c45)cc3s2)CC1` [Compound 64, 2-((3bS,4aR)-5,5-difluoro-3-(trifluoromethyl)-3b,4,4a,5-tetrahydro-1H-cyclopropa[3,4]cyclopenta[1,2-c]pyrazol-1-yl)-N—((S)-2-(3,5-difluorophenyl)-1-(2-(4-isopropylpiperazin-1-yl)-6-(1-methyl-3-(methylsulfonamido)-1H-indazol-7-yl)thiazolo[4,5-b]pyridin-5-yl)ethyl)acetamide] displayed an EC50 of 9.2 nM.

In turn, `Cn1nc(NS(C)(=O)=O)c2cccc(-c3cc4sc(N5CCN(C6COC6)CC5)nc4nc3[C@H](Cc3cc(F)cc(F)c3)NC(=O)Cn3nc(C(F)(F)F)c4c3C(F)(F)[C@@H]3C[C@H]43)c21` [Example 76, 2-((3bS,4aR)-5,5-difluoro-3-(trifluoromethyl)-3b,4,4a,5-tetrahydro-1H-cyclopropa[3,4]cyclopenta[1,2-c]pyrazol-1-yl)-N—((S)-2-(3,5-difluorophenyl)-1-(6-(1-methyl-3-(methylsulfonamido)-1H-indazol-7-yl)-2-(4-(oxetan-3-yl)piperazin-1-yl)thiazolo[4,5-b]pyridin-5-yl)ethyl)acetamide] showed an EC50 of 4.5 nM.

In turn, `Cn1nc(NS(C)(=O)=O)c2cccc(-c3cc4sc(N5CC6(CCN6)C5)nc4nc3[C@H](Cc3cc(F)cc(F)c3)NC(=O)Cn3nc(C(F)(F)F)c4c3C(F)(F)[C@@H]3C[C@H]43)c21` [Example 85, 2-((3bS,4aR)-5,5-difluoro-3-(trifluoromethyl)-3b,4,4a,5-tetrahydro-1H-cyclopropa[3,4]cyclopenta[1,2-c]pyrazol-1-yl)-N—((S)-2-(3,5-difluorophenyl)-1-(6-(1-methyl-3-(methylsulfonamido)-1H-indazol-7-yl)-2-(1,6-diazaspiro[3.3]heptan-6-yl)thiazolo[4,5-b]pyridin-5-yl)ethyl)acetamide] came in with an EC50 of 21.8 nM.

Take `CNc1nc2nc([C@H](Cc3cc(F)cc(F)c3)NC(=O)Cn3nc(C(F)(F)F)c4c3C(F)(F)[C@@H]3C[C@H]43)c(-c3cccc4c(NS(C)(=O)=O)nn(C)c34)cc2s1` [Example 79, 2-((3bS,4aR)-5,5-difluoro-3-(trifluoromethyl)-3b,4,4a,5-tetrahydro-1H-cyclopropa[3,4]cyclopenta[1,2-c]pyrazol-1-yl)-N—((S)-2-(3,5-difluorophenyl)-1-(6-(1-methyl-3-(methylsulfonamido)-1H-indazol-7-yl)-2-(methylamino)thiazolo[4,5-b]pyridin-5-yl)ethyl)acetamide]: the EC50 was 14.9 nM.

The compound `Cn1nc(NS(C)(=O)=O)c2cccc(-c3cc4sc(-c5c[nH]cn5)nc4nc3C(Cc3cc(F)cc(F)c3)NC(=O)Cn3nc(C(F)(F)F)c4c3C(F)(F)[C@@H]3C[C@H]43)c21` (stereo partly drawn) [Compound 133, N-(1-(2-(1H-imidazol-4-yl)-6-(1-methyl-3-(methylsulfonamido)-1H-indazol-7-yl)thiazolo[4,5-b]pyridin-5-yl)-2-(3,5-difluorophenyl)ethyl)-2-((3bS,4aR)-5,5-difluoro-3-(trifluoromethyl)-3b,4,4a,5-tetrahydro-1H-cyclopropa[3,4]cyclopenta[1,2-c]pyrazol-1-yl)acetamide] had an EC50 of 43.3 nM.

By EC50 is commonly meant the concentration that produces a half-maximal response.
